Holding throughout (assay type): cell-based
The target of assay [1] is Plk1 (Homo sapiens, UniProt P53350). The assay can be described thus: Cellular Plk1 kinase activity: nucleophosmin (B23) Ser4 phosphorylation in HCT116 cells (MSD electrochemiluminescence). The settings on record: nocodazole-treated, 4 hours compound exposure, read-out: Biochemical IC50 Nucleophosmin assay. As to the method:
Cellular Plk1 kinase activity was measured by quantification of nucleophosmin (B23) Ser4 phosphorylation in a cancer cell line. Nucleophosmin (B23) Ser4 is phosphorylated by Plkl, and this phosphorylation can be specifically detected by cross-reactivity of a phospho-Mekl/2 antibody that is able to recognizes a mitotic-specific phosphorylated form of nucleophosmin (B23) in a nocodazole dependent way (Zhang, H., Shi, X., Paddon, H., Hampong, M., Dai, W., and Pelech, S. (2004) B23/Nuleophosmin Serin 4 Phosphorylation Mediates Mitotic Functions of Polo-like Kinase 1. J. Biol. Chem., 279(34), 35726-35734).
Briefly, HCT116 cells (ATCC, Order No. CCL-247) were plated in 96 well dishes 24 hours prior to nocodazole treatment at 25 000 cells per well. Cells were then treated with 100 ng/ml nocodazole (Sigma-Aldrich, # M1404). […]
The cell lysates were thawed at room temperature and 40 µl were incubated on 96-well MULTI-ARRAY High Bind plates (L11XB; MSD) for 1.5 - 2 hours at room temperature. […] Then, 150 µl of 1x Read Buffer T (R92TC; MSD) were carefully added to each well and the plates were quantitatively detected for each well with a SECTOR™ Imager 6000 (MSD).
Inhibitory activity of the compound (IC) was calculated as % inhibition of nucleophosmin (B23) Ser4 phosphorylation compared to cells […].

Assay [2] relates to HT-29. As to the kind of experiment: SRB cell proliferation assay, HT-29. The settings on record: Homo sapiens, HT-29; 72 hours, SRB; read-out: CELLULAR IC50 HT-29. As to the method: (§1) Cells were exposed to the test compound racemate at various concentrations appropriate to determine an IC50 for 72 hours. Cell proliferation was measured using the SRB assay according to Shekan et al (J Natl Cancer Inst (1990) 82, 1107-112) in order to estimate the IC50 values shown in Table 3. Briefly, cells were plated in 96 well dishes 24 hours prior to compound addition at the densities specified in Table 5.1. The assay was terminated with the addition of cold TCA to a final concentration of 10% after growth medium has been removed and the plates were incubated over night at 4°C. The plates were then washed 5 times with water and 100µl of a Sulforhodamine B solution ([…]) was added to each well. The plates were then incubated for 10 minutes at room temperature before removal of unbound dye by washing with 1% acetic acid. The bound dye was solubilised with 10 mM Trizma base and the absorbance read at OD520.
(§2) Inhibitory activity of the compound (IC) was calculated as % inhibition of cell proliferation compared to cells treated with the solvent (DMSO).
(§3) Table 8.1: 18-Cell Line Panel

In assay [3] the test system is HCT 116. As to the kind of experiment: SRB cell proliferation assay, HCT 116. Conditions: Homo sapiens, HCT-116; 72 hours, SRB; read-out: CELLULAR IC50 HCT 116. As to the method: as §1, §2, §3
Assay [4] deals with IMR-90. As to the kind of experiment: SRB cell proliferation assay, IMR-90. The settings on record: Homo sapiens, IMR-90; 72 hours, SRB; read-out: CELLULAR IC50 IMR-90. As to the method:
as §1, §2, §3

Some results are limits rather than exact numbers.

Plk1, sequence (P53350 whole entry, species assumed): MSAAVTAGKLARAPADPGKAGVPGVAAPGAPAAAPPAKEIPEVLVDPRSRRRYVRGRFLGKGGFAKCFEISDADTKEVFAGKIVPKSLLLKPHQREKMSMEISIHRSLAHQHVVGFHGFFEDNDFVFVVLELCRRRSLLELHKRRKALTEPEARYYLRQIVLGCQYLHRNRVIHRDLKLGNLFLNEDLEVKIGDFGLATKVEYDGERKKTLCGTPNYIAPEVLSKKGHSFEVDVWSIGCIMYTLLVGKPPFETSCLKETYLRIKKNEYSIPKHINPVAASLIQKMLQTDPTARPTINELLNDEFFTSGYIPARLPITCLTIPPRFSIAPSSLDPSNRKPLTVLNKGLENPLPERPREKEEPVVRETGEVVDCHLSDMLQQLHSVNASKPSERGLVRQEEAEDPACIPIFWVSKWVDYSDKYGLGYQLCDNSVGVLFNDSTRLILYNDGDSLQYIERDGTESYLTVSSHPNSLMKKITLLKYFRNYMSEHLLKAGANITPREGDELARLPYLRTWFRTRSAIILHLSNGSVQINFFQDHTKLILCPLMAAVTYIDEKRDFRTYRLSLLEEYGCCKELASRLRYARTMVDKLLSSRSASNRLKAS

Take `CCC1C(=O)N(C)c2cnc(Nc3ccc(C(=O)N[C@H]4CC[C@H](N5CCN(CC6CC6)CC5)CC4)cc3OC)nc2N1N(C)C` (mixture of isomers) [racemic mixture containing compound 1 and (S)-enantiomer, N-[trans-4-(4-Cyclopropylmethyl-piperazin-1-yl)-cyclohexyl]-4-(8-dimethylamino-7-ethyl-5-methyl-6-oxo-5,6,7,8-tetrahydro-pteridin-2-ylamino)-3-methoxy-benzamide]: the IC50 (usually the point on the concentration scale where inhibition reaches its midpoint) is below 100 nM in assay [1], below 1000 nM in assay [2], below 1000 nM in assay [3] and above 1000 nM in assay [4].

The values above are taken from patent publication EP2325185A1, “Plk inhibitor” (GPC Biotech AG, priority 2009, dated 2011).
